# Source: patent US20090118135A1, “METHODS AND COMPOUNDS FOR REGULATING APOPTOSIS” (The Burnham Institute, priority 2007, published 2009)
# Target: T1, GST-Bfl-1 (Homo sapiens, UniProt Q16548)
# T1 construct: lacking their C-terminal transmembrane domains (about the last 20 amino acids) (“ΔTM”); made in house; host or cells: XL-1 Blue E. coli, pGEX 4T-1
# T1 sequence (Q16548 1-155 limits assumed): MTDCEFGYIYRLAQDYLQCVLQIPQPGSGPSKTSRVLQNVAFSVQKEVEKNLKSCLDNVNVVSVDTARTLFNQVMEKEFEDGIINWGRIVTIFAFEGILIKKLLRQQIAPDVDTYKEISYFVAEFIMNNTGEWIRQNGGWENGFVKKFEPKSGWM
# Test: Bfl-1/FITC-Bid BH3 competitive fluorescence polarization assay
# Format: binding
# Conditions: primary HTS hits, MLSCN library (PubChem SIDs), Table 5B
# Protocol: A FPA was performed to determine the binding affinity of FITC-Bid BH3 peptide to Bcl-2 proteins. […] IC50 determinations were performed using GraphPad Prism software (GraphPad, Inc., San Diego, Calif.). FPA competition assays were performed using the same procedure described above, except that 100 nM of GST-Bfl-1 protein in a volume of 45 μl was incubated with 5 μl (50 μM) test compounds in DMSO per well for 30 min prior to addition of 50 μl (5 nM) FITC-Bid BH3 peptide. The final DMSO concentration was 5% when the reactions brought to fall volume of 100 μl. Fluorescence polarization was measured after 10 min. Compounds that reduced the fluorescence polarization by 50% were considered hits.
Structure (SMILES),% Activity [%],FRatio
Cc1cc(Cl)ccc1OCC(=O)OC(C)C(=O)N(C)C (stereo not drawn) [Compound 867049],53.3,0.78
Cc1ccc(S(=O)(=O)NC(=O)c2cc(C)n(CCCn3ccnc3)c2C)cc1 [Compound 3173759],61.5,0.99
O=C(CSc1ccc(Cl)cc1)c1ccco1 [Compound 3711335],75.2,0.83
Clc1ccc2nc(CN3CCCc4ccccc43)cn2c1 [Compound 3711377],61.3,0.75
O=C(COC(=O)CN1C(=O)c2ccccc2C1=O)Nc1ncc(Cl)cc1Cl [Compound 3711621],58.7,1.36
Cc1c(Cl)cnc(NC(=O)COC(=O)C(NC(=O)c2ccco2)C(C)C)c1Cl (stereo not drawn) [Compound 3711777],108.1,0.66
Cc1ccc(S(=O)(=O)NCC(=O)OCC(=O)Nc2ncc(Cl)cc2Cl)cc1 [Compound 3711819],63.4,0.8
Cc1ccc(-n2c(SCc3cc(=O)n4ccsc4n3)nnc2-c2cccnc2)c(C)c1 [Compound 3712302],80.3,0.96
COc1ccccc1NCCC(=O)OCC(=O)NCc1ccco1 [Compound 3712399],85.2,0.95
O=C(COC(=O)c1cccs1)NCc1ccco1 [Compound 3712480],79.7,0.96
CCS(=O)(=O)N1Cc2ccccc2CC1C(=O)N1CCN(c2cccc(C)c2C)CC1 (stereo not drawn) [Compound 3712504],54.7,0.25
Cc1cc(C)c(NC(=O)C2=CC3C(N=C4SC=CN43)S2)c(C)c1 (stereo not drawn) [Compound 3712588],66.1,1.05
Cc1ccc(OCCSc2nnc(-c3ccncc3)n2C)cc1 [Compound 3712590],68.9,0.91
COc1ccc(S(=O)(=O)N2CCCC2C(=O)Nc2nnc(-c3cccnc3)s2)cc1 (stereo not drawn) [Compound 3713012],50.9,0.9
Cc1ccc(OCCC(=O)OCC(=O)Nc2ccc(Cl)cn2)cc1 [Compound 3713376],54.8,1.43
O=C(c1cnccn1)N1CCc2ccccc21 [Compound 3713383],80.1,0.72
FC(F)(F)c1cnc(Nc2ccc(N3CCOCC3)cc2)c(Cl)c1 [Compound 3713921],51.4,0.51
COc1ccc(NC(=O)c2cc(CN3C(=O)c4ccccc4C3=O)ccc2OC)cn1 [Compound 3713992],66.9,1.47
CC(C)CN(C(=O)COC(=O)c1cc2c(s1)CCC2)C1CCS(=O)(=O)C1 (stereo not drawn) [Compound 3714271],53.1,0.67
CCOc1ccc(C(=O)OCC(=O)NCc2ccco2)cc1OCC [Compound 3714498],71.4,1
COc1cc(CC(=O)OCC(=O)Nc2ncc(Cl)cc2Cl)cc(OC)c1OC [Compound 3714968],54,1.42
CC(=N)/C(C#N)=C(/O)CSc1nnc(Nc2c(C)cccc2C)s1 [Compound 3715042],63.1,0.63
O=C(NCc1ccco1)c1c2c(nc3ccccc13)CCC2 [Compound 3715091],62.4,0.86
O=C(COC(=O)c1cncc(Br)c1)NCc1ccco1 [Compound 3715512],55.4,0.95
Cn1c(C(C#N)C2=C(Cl)C(=O)N(c3ccccc3)C2=O)nc2ccccc21 (stereo not drawn) [Compound 3716185],89.8,0.68
C=CCn1c(SCc2cc(=O)n3ccsc3n2)nnc1C1CCCCC1 [Compound 3716212],54.8,0.6
Cc1ccc(S(=O)(=O)N2CCCCC2)cc1C(=O)Nc1nc[nH]n1 [Compound 3716232],50.5,0.86
